SMILES strings stand for the structures.

A short description of this data set: clinical. To be noted: human, in vivo. How it is done: The single- and multiple-dose pharmacokinetics of cilansetron at oral doses of 4 mg and 8 mg were evaluated in a randomized, double-blind, placebo controlled, parallel group study in 32 male subjects (14 subjects received 4 mg cilansetron, 14 received 8 mg cilansetron, and 4 received placebo). Subjects received a single dose of cilansetron at their assigned dose on the first day of the study (Day 1), followed by a 7-day washout, after which they received cilansetron TID at their assigned dose for 6 days and a single dose on the morning of the seventh day (Day 14). Morning doses on all days were administered under fasted conditions. […] Renal excretion of cilansetron was negligible following single and multiple dosing at both doses, with less than 1% of the dose excreted unchanged in urine.

Usually Vd/F stands for the apparent distribution volume after extravascular dosing. As a reminder, the AUC is the area under the concentration-time curve, a measure of exposure. Low values mean less exposure, high ones more exposure. By Cmax is commonly meant the peak of the concentration-time curve. The Tmax is the time at which the peak concentration occurs. The half-life is the time in which the quantity being followed falls by half. Regarding `Cc1nccn1C[C@H]1CCc2c(c3cccc4c3n2CCC4)C1=O` [Cilansetron, (R)-(−)-4,5,6,8,9,10-hexahydro-10-[(2-methyl-1H-imidazol-1-yl)methyl]-11H-pyrido-[3,2,1-jk]-carbazol-11-one], the CL/F (4 mg) was 3226 (51) mL/min. The CL/F (8 mg) was 3559 (62) mL/min. Besides, where the note is “male”, the “Dose excreted unchanged in urine” value was “less than 1%”; the “Intersubject % CV for AUC and Cmax” value is listed as 36-82%; the “Intrasubject % CV on AUC” value is given as 33-55%. Besides, where the note is “male, 4 mg”, the CLr is given as 7.47 (143) mL/min, the DN-AUC is recorded as 6.08 (36) ng · h/mL, the DN-Cmax is 2.21 (37) ng/mL and the Vd/F came out at 406 L. Besides, where the note is “male, 4 mg”, the AUC turned out to be 24.3 ng·h/mL, the maximum concentration (Cmax) came out at 8.83 ng/mL and the Tmax is 1.38 h. The half-life (male, 4 mg, T½) was 1.55 h. Where the note is “male, 8 mg”, the DN-AUC is listed as 6.55 (69) ng · h/mL, the DN-Cmax is 2.89 (61) ng/mL, the Vd/F was 483 L and the AUC came to 52.4 ng·h/mL. Besides, for the setting “male, 8 mg”, the highest concentration (Cmax) was 23.1 ng/mL and the time of peak concentration (Tmax) is 1 h. Besides, the CL renal (male, 8 mg, CLr) was determined as 4.68 mL/min. For the same molecule, the half-life (male, 8 mg, T½) was 1.92 h. The molecule also came in with a half-life (male, Mean half-life) of 1.6 to 1.9 h.
